Laboratory results reported in patent US8999991B2, “Inhibitors of the renal outer medullary potassium channel” (Merck Sharp & Dohme Corp., priority 2011, dated 2015).

molecular target: T1, hROMK (hKir1.1) (Homo sapiens, UniProt P48048); experiment: Thallium Flux Assay (ROMK channel functional thallium flux assay, FLIPR-Tetra, 384 wells); type: cell-based; details: HEK293 cells stably expressing hROMK (hKir1.1); 30 min incubation with test compound
T1 construct: expressed in transfected cells; HEK-hKir1.1)
T1 sequence (P48048 1-391): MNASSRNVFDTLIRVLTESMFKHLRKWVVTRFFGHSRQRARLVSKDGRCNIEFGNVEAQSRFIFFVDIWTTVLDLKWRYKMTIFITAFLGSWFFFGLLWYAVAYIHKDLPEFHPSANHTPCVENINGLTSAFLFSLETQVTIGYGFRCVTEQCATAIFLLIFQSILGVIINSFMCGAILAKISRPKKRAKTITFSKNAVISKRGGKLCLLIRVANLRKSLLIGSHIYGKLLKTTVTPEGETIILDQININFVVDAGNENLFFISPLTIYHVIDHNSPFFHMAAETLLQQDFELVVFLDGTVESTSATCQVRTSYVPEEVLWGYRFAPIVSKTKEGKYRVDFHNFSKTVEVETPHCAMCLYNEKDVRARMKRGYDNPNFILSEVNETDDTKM
Protocol: The following Thallium Flux Assay was performed on the final product compounds in all the Examples. This assay makes use of the ability of thallium to permeate through open ROMK channels and increase the fluorescence of a dye previously loaded into the cells. Under control conditions, cells loaded with dye and exposed to thallium-containing medium display a time-dependent increase in fluorescence, the rate of which depends on number of functional channels. When cells are incubated in the presence of a channel inhibitor, the increase in fluorescence is attenuated in a concentration-dependent manner, and IC50 values of inhibition by compounds can be accurately determined. This assay has been established with cell lines expressing either human, or rat ROMK channels, and operates in 384-well format.
HEK293 cells stably expressing hROMK (hKir1.1) were grown at 37° C. in a 10% CO2 humidified incubator in complete growth media: Dulbecco's Modified Eagle Medium supplemented with non-essential amino acids, Penicillin/Streptomycin/Glutamine, G418 and FBS. At >80% confluency, aspirate the media from the flask and rinse with 10 mL Calcium/Magnesium-free PBS. Add 5 mL of 1× trypsin (prepared in Ca/Mg Free PBS) to T-225 flask and return flask to 37° C./CO2 incubator for 2-3 minutes. To dislodge the cell, gently bang the side of the flask with your hand. Triturate the cells completely and then transfer the cells to 25 mL complete media. Centrifuge at 1,500 rpm for 6 min followed by resuspension in complete growth media and determine cell concentration. For typical re-seeding, 4E6 cells/T-225 flask will attain >80% confluency in 4 days. Under ideal growth conditions and appropriate tissue culture practices, this cell line is stable for 40-45 passages.
• FluxOR™ Reagent (Component A) • FluxOR™ Assay Buffer (Component B)—10× Concentrate • PowerLoad™ Concentrate (Component C)—100× Concentrate • Probenecid (Component D)—Lyophilized sample is kept at −20° C. Water soluble, 100× after solubilization in 1 mL water. […] Store at 4° C. • Thallium sulfate (Tl2SO4) Concentrate (Component G)—50 mM in water. Store at 4° C. • DMSO (dimethyl sulfoxide, Component H)—1 mL (100%) Reagent Preparation: FluxOR Working Solutions • 1000× FluxOR™ Reagent: Reconstitute a vial of component A in 100 μl DMSO; Mix well; Store 10 μl aliquots at −20° C. • 1× FluxOR™ Assay Buffer: Dilute Component B 10-fold with water; Adjust pH to 7.4 with Hepes/NaOH; Filter and store at 4° C. • Probenecid/Assay Buffer: 100 mL of 1× FluxOR™ Assay Buffer; 1 mL of reconstituted component D; Store at 4° C. • Loading Buffer (per microplate): 10 μl 1000× FluxOR™ Reagent; 100 μl component C; 10 mL Probenecid/Assay Buffer • Compound Buffer (per microplate): 20 mL Probenecid/Assay Buffer; 0.3 mM ouabain (10 mM ouabain in water can be stored in amber bottle/aluminum foil at room temperature); Test compound • 1× FluxOR™ Chloride-Free Buffer: Prepare 1× working solution in water. Can be stored at room temperature • Stimulant Buffer (prepared at 5× final concentration in 1× FluxOR™ Chloride-Free Buffer): 7.5 mM Thallium sulfate and 0.75 mM Potassium sulfate (to give a final assay concentration of 3 mM Thallium/0.3 mM Potassium). Store at 4° C. when not in use. If kept sterile, this solution is good for months. Assay Protocol—
The ROMK channel functional thallium flux assay is performed in 384 wells, using the FLIPR-Tetra instrument. HEK-hKir1.1 cells are seeded in Poly-D-Lysine microplates and kept in a 37° C.-10% CO2 incubator overnight. On the day of the experiment, the growth media is replaced with the FluxOR™ reagent loading buffer and incubated, protected from light, at ambient temperature (23-25° C.) for 90 min. The loading buffer is replaced with assay buffer±test compound followed by 30 min incubation at ambient temperature, where the Thallium/Potassium stimulant is added to the microplate.
• 1. Seed HEK-hKir1.1 cells (50 μl at 20,000 cells/well) in 384-well PDL coated Microplates • 2. […]

Point of comparison: `Cc1c([C@@H](O)CN2CCN(c3ccc4nc(S(C)(=O)=O)ccc4c3)C(=O)C2)ccc2c1COC2=O` [Example 15, 4-[(2R)-2-hydroxy-2-(4-methyl-1-oxo-1,3-dihydro-2-benzofuran-5-yl)ethyl]-1-[2-(methylsulfonyl)quinolin-6-yl]piperazin-2-one], IC50 220 nM. Against it:
- Cc1c([C@@H](O)CN2CCN(c3ccc4cc(C#N)sc4c3)C(=O)C2)ccc2c1COC2=O [Example 14, 6-{4-[(2R)-2-Hydroxy-2-(4-methyl-1-oxo-1,3-dihydro-2-benzofuran-5-yl)ethyl]-2-oxopiperazin-1-yl}-1-benzothiophene-2-carbonitrile] — within 1.5-fold, 160 nM
- N#Cc1ccc2cc(N3CCN(CCc4ccc5c(c4)COC5=O)CC3=O)ccc2c1 [Example 1, 6-{2-Oxo-4-[2-(1-oxo-1,3-dihydro-2-benzofuran-5-yl)ethyl]piperazin-1-yl}naphthalene-2-carbonitrile] — 3.7-fold lower, 60 nM
- Cc1c([C@@H](O)CN2CCN(c3cc4ccc(C#N)c(C)c4cn3)C(=O)C2)ccc2c1COC2=O [Example 13, 3-{4-[(2R)-2-Hydroxy-2-(4-methyl-1-oxo-1,3-dihydro-2-benzofuran-5-yl)ethyl]-2-oxopiperazin-1-yl}-8-methylisoquinoline-7-carbonitrile] — within 1.5-fold, 150 nM
- Cc1c([C@@H](O)CN2CCN(c3cc4ccc(C#N)cc4cn3)C(=O)C2)ccc2c1COC2=O [Example 5, 3-{4-[(2R)-2-Hydroxy-2-(4-methyl-1-oxo-1,3-dihydro-2-benzofuran-5-yl)ethyl]-2-oxopiperazin-1-yl}isoquinoline-7-carbonitrile] — 2.8-fold lower, 80 nM
- Cc1cc2c(cc1C(O)CN1CCN(c3ccc4cc(C#N)ccc4c3)C(=O)C1)COC2=O (racemic) [Example 3, 6-{4-[2-Hydroxy-2-(6-methyl-1-oxo-1,3-dihydro-2-benzofuran-5-yl)ethyl]-2-oxopiperazin-1-yl}naphthalene-2-carbonitrile] — 3.1-fold lower, 70 nM
- Cc1c([C@@H](O)CN2CCN(c3nc4ccc(C#N)cc4s3)C(=O)C2)ccc2c1COC2=O [Example 9, 2-{4-[(2R)-2-Hydroxy-2-(4-methyl-1-oxo-1,3-dihydro-2-benzofuran-5-yl)ethyl]-2-oxopiperazin-1-yl}-1,3-benzothiazole-6-carbonitrile] — 2.4-fold lower, 90 nM
- Cc1cc2nc(N3CCN(C[C@H](O)c4ccc5c(c4C)COC5=O)CC3=O)ccc2cc1C#N [Example 12, 2-{4-[(2R)-2-Hydroxy-2-(4-methyl-1-oxo-1,3-dihydro-2-benzofuran-5-yl)ethyl]-2-oxopiperazin-1-yl}-7-methylquinoline-6-carbonitrile] — 2.8-fold lower, 80 nM
- Cc1c([C@@H](O)CN2CCN(c3ccc4cc(C#N)sc4n3)C(=O)C2)ccc2c1COC2=O [Example 8, 6-{4-[(2R)-2-Hydroxy-2-(4-methyl-1-oxo-1,3-dihydro-2-benzofuran-5-yl)ethyl]-2-oxopiperazin-1-yl}thieno-[2,3-b]pyridine-2-carbonitrile] — within 1.5-fold, 160 nM
- Cc1c([C@@H](O)CN2CCN(c3ccc4ccc(C#N)cc4c3)C(=O)C2)ccc2c1COC2=O [Example 6, 7-{4-[(2R)-2-Hydroxy-2-(4-methyl-1-oxo-1,3-dihydro-2-benzofuran-5-yl)ethyl]-2-oxopiperazin-1-yl}naphthalene-2-carbonitrile] — 2.4-fold lower, 90 nM
- Cc1c([C@@H](O)CN2CCN(c3ccc4cc(C#N)ccc4c3)C(=O)C2)ccc2c1COC2=O [Example 2, 6-{4-[(2R)-2-Hydroxy-2-(4-methyl-1-oxo-1,3-dihydro-2-benzofuran-5-yl)ethyl]-2-oxopiperazin-1-yl}naphthalene-2-carbonitrile] — 4.4-fold lower, 50 nM
- Cc1c([C@@H](O)CN2CCN(c3cnc4cc(C#N)ccc4c3)C(=O)C2)ccc2c1COC2=O [Example 11, 3-{4-[(2R)-2-Hydroxy-2-(4-methyl-1-oxo-1,3-dihydro-2-benzofuran-5-yl)ethyl]-2-oxopiperazin-1-yl}quinoline-7-carbonitrile] — 1.6-fold lower, 140 nM
- Cc1c([C@@H](O)CN2CCN(c3ccc4cc(C#N)cnc4c3)C(=O)C2)ccc2c1COC2=O [Example 10, 7-{4-[(2R)-2-Hydroxy-2-(4-methyl-1-oxo-1,3-dihydro-2-benzofuran-5-yl)ethyl]-2-oxopiperazin-1-yl}quinoline-3-carbonitrile] — within 1.5-fold, 210 nM
- Cc1c([C@@H](O)CN2CCN(c3nc4cc(C#N)ccc4s3)C(=O)C2)ccc2c1COC2=O [Example 7, 2-{4-[(2R)-2-Hydroxy-2-(4-methyl-1-oxo-1,3-dihydro-2-benzofuran-5-yl)ethyl]-2-oxopiperazin-1-yl}-1,3-benzothiazole-5-carbonitrile] — 5.5-fold lower, 40 nM
